# Laboratory results from PubChem BioAssay AID248 (DTP/NCI, 2004).
# Inconclusive results and toxic doses are left out.
# System: L1210 leukemia ip in BDF1 mice, survival T/C
# Experiment: NCI In Vivo Anticancer Drug Screen. Data for tumor model L1210 Leukemia (intraperitoneal) in B6D2F1 (BDF1) mice
# Conditions: endpoint: mean survival time, higher = longer survival
# Procedure: The antitumor activity of compounds was measured in mice bearing transplantable tumors. Survival or tumor size were measured and the results are expressed as the measurement made in the treated group (T) divided by the measurement made in the vehicle treated control group (C). The tumor model used in this assay is L1210 Leukemia (intraperitoneal) in B6D2F1 (BDF1) mice
# [1] = dose: 100.0 mg/kg/injection, schedule: Q04DX002 (ip), vehicle: Klucel (hydroxypropylcellulose) (HPC)
# [2] = dose: 200.0 mg/kg/injection, schedule: Q04DX002 (ip), vehicle: Klucel (hydroxypropylcellulose) (HPC)
# [3] = dose: 400.0 mg/kg/injection, schedule: Q04DX002 (ip), vehicle: Klucel (hydroxypropylcellulose) (HPC)
# [4] = dose: 50.0 mg/kg/injection, schedule: Q01DX001 (ip), vehicle: saline
# [5] = dose: 100.0 mg/kg/injection, schedule: Q01DX001 (ip), vehicle: saline
# [6] = dose: 200.0 mg/kg/injection, schedule: Q01DX001 (ip), vehicle: saline
# [7] = dose: 100.0 mg/kg/injection, schedule: Q01DX009 (ip), vehicle: saline
# [8] = dose: 200.0 mg/kg/injection, schedule: Q01DX009 (ip), vehicle: saline
# [9] = dose: 400.0 mg/kg/injection, schedule: Q01DX009 (ip), vehicle: saline
# [10] = dose: 100.0 mg/kg/injection, schedule: Q01DX009 (ip), vehicle: saline with Tween-80
# [11] = dose: 100.0 mg/kg/injection, schedule: Q04DX003 (ip), vehicle: saline with Tween-80
# [12] = dose: 200.0 mg/kg/injection, schedule: Q01DX009 (ip), vehicle: saline with Tween-80
# [13] = dose: 200.0 mg/kg/injection, schedule: Q04DX003 (ip), vehicle: saline with Tween-80
# [14] = dose: 400.0 mg/kg/injection, schedule: Q04DX003 (ip), vehicle: saline with Tween-80
# [15] = dose: 400.0 mg/kg/injection, schedule: Q01DX001 (ip), vehicle: saline
compound,measurement,setting,value
CCN(CC)C(=S)Oc1c(C(C)(C)C)cc([N+](=O)[O-])c(C)c1[N+](=O)[O-],T/C,[1],90 % of control
same,T/C,[2],100 % of control
same,T/C,[3],97 % of control
C[N+]1(Cc2ccccc2)CCC(=O)CC1,T/C,[4],97 % of control
same,T/C,[5],100 % of control
same,T/C,[6],103 % of control
CCOC(=O)CNCc1ccc(F)cc1,T/C,[7],105 % of control
same,T/C,"dose: 100.0 mg/kg/injection, schedule: Q04DX003 (ip), vehicle: saline",104 % of control
same,T/C,[8],103 % of control
same,T/C,"dose: 200.0 mg/kg/injection, schedule: Q04DX003 (ip), vehicle: saline",110 % of control
same,T/C,[9],88 % of control
same,T/C,"dose: 400.0 mg/kg/injection, schedule: Q04DX003 (ip), vehicle: saline",100 % of control
c1ccc2c(c1)C1CCC2c2ccccc21,T/C,[10],106 % of control
same,T/C,[11],95 % of control
same,T/C,[12],102 % of control
same,T/C,[13],98 % of control
same,T/C,"dose: 400.0 mg/kg/injection, schedule: Q01DX009 (ip), vehicle: saline with Tween-80",97 % of control
same,T/C,[14],92 % of control
COc1cc(N=Cc2ccc([N+](=O)[O-])cc2)c2ncccc2c1,T/C,"dose: 100.0 mg/kg/injection, schedule: Q01DX001 (ip), vehicle: carboxymethylcellulose (CMC)",101 % of control
same,T/C,"dose: 200.0 mg/kg/injection, schedule: Q01DX001 (ip), vehicle: carboxymethylcellulose (CMC)",94 % of control
same,T/C,"dose: 400.0 mg/kg/injection, schedule: Q01DX001 (ip), vehicle: carboxymethylcellulose (CMC)",92 % of control
COc1ccc2c(c1)N(C(=O)C(Cl)(Cl)Cl)Cc1ccccc1C2=O,T/C,[7],87 % of control
same,T/C,[8],93 % of control
same,T/C,[9],96 % of control
COc1ccc(C)cc1NC(C)=O,T/C,[5],98 % of control
same,T/C,[6],100 % of control
same,T/C,[15],98 % of control
CCS(=O)(=O)CCNC(=O)NS(=O)(=O)c1ccc(C)cc1,T/C,[11],97 % of control
same,T/C,[13],97 % of control
same,T/C,[14],90 % of control
CCCCNC(=O)Nc1cc(C)ccc1Cl,T/C,[1],115 % of control
same,T/C,[2],97 % of control
same,T/C,[3],105 % of control
Cc1cc(Cl)ccc1OCCCC(=O)O,T/C,[4],102 % of control
same,T/C,[5],98 % of control
same,T/C,[6],98 % of control
same,T/C,[15],104 % of control
CSCC(NC(=O)OCc1ccccc1)C(=O)O (stereo not drawn),T/C,"dose: 50.0 mg/kg/injection, schedule: Q01DX009 (ip), vehicle: saline with Tween-80",111 % of control
same,T/C,[10],111 % of control
same,T/C,[12],101 % of control
C=CC(=O)NC(C)=O,T/C,"dose: 12.5 mg/kg/injection, schedule: Q04DX002 (ip), vehicle: Klucel (hydroxypropylcellulose) (HPC)",103 % of control
same,T/C,"dose: 25.0 mg/kg/injection, schedule: Q04DX002 (ip), vehicle: Klucel (hydroxypropylcellulose) (HPC)",92 % of control
same,T/C,"dose: 50.0 mg/kg/injection, schedule: Q04DX002 (ip), vehicle: Klucel (hydroxypropylcellulose) (HPC)",95 % of control
O=C(Nc1ccc(C2=NCCN2)cc1)Nc1cc(C(=O)Nc2ccc(C3=NCCN3)cc2)ccc1C(=O)Nc1ccc(C2=NCCN2)cc1,T/C,"dose: 7.5 mg/kg/injection, schedule: Q01DX Z (oral), vehicle: saline",107 % of control
same,T/C,"dose: 15.0 mg/kg/injection, schedule: Q01DX Z (ip), vehicle: saline",241 % of control
same,T/C,"dose: 15.0 mg/kg/injection, schedule: Q01DX Z (oral), vehicle: saline",105 % of control
same,T/C,"dose: 30.0 mg/kg/injection, schedule: Q01DX Z (oral), vehicle: saline",103 % of control
same,T/C,"dose: 60.0 mg/kg/injection, schedule: Q01DX Z (oral), vehicle: saline",102 % of control
same,T/C,"dose: 62.5 mg/kg/injection, schedule: Q01DX010 (oral), vehicle: saline",95 % of control
same,T/C,"dose: 75.0 mg/kg/injection, schedule: Q01DX Z (oral), vehicle: saline",95 % of control
same,T/C,"dose: 125.0 mg/kg/injection, schedule: Q01DX010 (oral), vehicle: saline",110 % of control
same,T/C,"dose: 250.0 mg/kg/injection, schedule: Q01DX010 (oral), vehicle: saline",108 % of control
same,T/C,"dose: 500.0 mg/kg/injection, schedule: Q01DX010 (oral), vehicle: saline",97 % of control
